ChEMBL document CHEMBL1201862, “PubChem BioAssay data set” (2004)
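Five compound concentrations were applied to cells in 96-well plates for 48 hours; endpoints were derived by simple linear interpolation of the resulting dose-response curve. At the GI50, growth is halved.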 Activity calls are given as the source filed them. No stated cut-off is given here; in the data, active = GI50 up to about 1.1 µM and inactive = higher.

Tests used:
Assay in all cases: growth of human tumour cells (NCI), 48 h
[1] = system: HOP-62
[2] = system: SR
[3] = system: K562
[4] = system: UACC-62
[5] = system: NCI/ADR-RES
[6] = system: MDA-MB-231
[7] = system: NCI-H522
[8] = system: SW-620
[9] = system: NCI-H23
[10] = system: ACHN
[11] = system: SF-268
[12] = system: SK-MEL-28
[13] = system: OVCAR-8
[14] = system: A549
[15] = system: SF-539
[16] = system: SK-OV-3
[17] = system: SNB-75
[18] = system: RPMI-8226
[19] = system: SN12C
[20] = system: MCF7

Compound	GI50 [1]	GI50 [2]	GI50 [3]	GI50 [4]	GI50 [5]	GI50 [6]	GI50 [7]	GI50 [8]	GI50 [9]	GI50 [10]	GI50 [11]	GI50 [12]	GI50 [13]	GI50 [14]	GI50 [15]	GI50 [16]	GI50 [17]	GI50 [18]	GI50 [19]	GI50 [20]
O=[N+]([O-])c1ccc(Nc2nc3ccccc3s2)cc1	29.2 µM (inactive)	10.7 µM (inactive)	12.2 µM (inactive)	20.2 µM (inactive)	34.9 µM (inactive)	18 µM (inactive)	14.4 µM (inactive)	35 µM (inactive)	16 µM (inactive)	29.5 µM (inactive)	26.3 µM (inactive)	46.2 µM (inactive)	40.7 µM (inactive)	47.6 µM (inactive)	–	–	–	–	–	–
Cn1cc(C(=O)c2nccc3c2cnc2ccccc23)ccc1=O	25.9 µM (inactive)	8.17 µM (inactive)	> 100 µM (inactive)	> 100 µM (inactive)	> 100 µM (inactive)	> 100 µM (inactive)	–	> 100 µM (inactive)	> 100 µM (inactive)	12.2 µM (inactive)	> 100 µM (inactive)	> 100 µM (inactive)	> 100 µM (inactive)	56.1 µM (inactive)	> 100 µM (inactive)	> 100 µM (inactive)	29.4 µM (inactive)	> 100 µM (inactive)	59.3 µM (inactive)	–
CC1CN=C(N(C(=O)Nc2ccc(Cl)c(Cl)c2)c2ccccc2)S1 (stereo not given)	> 100 µM (inactive)	–	> 10 µM (inactive)	–	34.8 µM (inactive)	> 100 µM (inactive)	–	72.1 µM (inactive)	64.9 µM (inactive)	57.8 µM (inactive)	69.2 µM (inactive)	38.5 µM (inactive)	87.1 µM (inactive)	53.7 µM (inactive)	39.4 µM (inactive)	–	56.2 µM (inactive)	64.9 µM (inactive)	33.6 µM (inactive)	28.2 µM (inactive)
C=CC(Br)(CBr)CCC(Cl)C(C)C (stereo not given)	1.8 µM (inactive)	0.481 µM (active)	1.33 µM (inactive)	1.5 µM (inactive)	–	1.4 µM (inactive)	1.42 µM (inactive)	1.69 µM (inactive)	2.74 µM (inactive)	2.53 µM (inactive)	1.56 µM (inactive)	1.58 µM (inactive)	–	4.69 µM (inactive)	2.31 µM (inactive)	4.25 µM (inactive)	1.49 µM (inactive)	0.35 µM (active)	1.73 µM (inactive)	1.39 µM (inactive)
COc1cc(/C=C2\CCC(C)C3=C2N=c2s/c(=C/c4ccc(Cl)cc4)c(=O)n2C3c2cc(OC)c(OC)c(OC)c2)cc(OC)c1OC (stereo not given)	> 100 µM (inactive)	> 100 µM (inactive)	> 100 µM (inactive)	> 100 µM (inactive)	–	> 100 µM (inactive)	–	> 100 µM (inactive)	–	> 100 µM (inactive)	> 100 µM (inactive)	> 100 µM (inactive)	> 100 µM (inactive)	> 100 µM (inactive)	–	> 100 µM (inactive)	0.277 µM (active)	> 100 µM (inactive)	> 100 µM (inactive)	> 100 µM (inactive)
O=c1cccc2n1C[C@H]1CNC[C@H]2C1	> 100 µM (inactive)	–	> 100 µM (inactive)	> 100 µM (inactive)	> 100 µM (inactive)	> 100 µM (inactive)	–	> 100 µM (inactive)	> 100 µM (inactive)	> 100 µM (inactive)	> 100 µM (inactive)	> 100 µM (inactive)	> 100 µM (inactive)	> 100 µM (inactive)	> 100 µM (inactive)	> 100 µM (inactive)	> 100 µM (inactive)	> 100 µM (inactive)	> 100 µM (inactive)	> 100 µM (inactive)
